MIC data for 34 compounds are collected here from patent publication US7563788B2, “Substituted Imidazo[1,2-a]pyridines as Antibacterial Agents” (Pfizer Inc., priority 2004, dated 2009).

Converted amounts (≈) assume the structure as drawn.

The subject of the assay is Neisseria gonorrhoeae, GC525 (NG-2888). Nature of the assay: In-vitro antibacterial activity, microbroth dilution MIC susceptibility testing. The format is cell-based. Conditions: gonococcal broth, 20-24 hours at 35° C., lowest concentration preventing visible growth. The method, then:
The in-vitro antibacterial activity of selected compounds was determined against a stain of Neisseria gonorrhoeae, GC525 (NG-2888), which is described by Rouquette-Loughlin et al, in Journal of Bacteriology, February 2003, p. 1101-1106, at p. 1103. In general, minimum inhibitory concentration (MIC) susceptibility testing followed procedures recommended by the National Committee for Clinical Laboratory Standards (NCCLS^1-2) or followed the descriptions described below:
Neisseria gonorrhoeae strains were grown on Chocolate Agar II plates (BBL—Becton Dickinson Microbiology Systems, Cockeysville, Md.) and incubated at 35° C. in a humidified 5% CO2 incubator (Forma Scientific, Marietta Ohio). For microbroth dilution MIC testing, N. gonorrhoeae were tested in gonococcal broth (GCB):
Bacterial culture identifications were confirmed by standard microbiological methods.^4 N. gonorrhoeae strains were streaked onto appropriate agar plates for visualization of purity and expected colony morphology. Gram stains were also utilized.
Bacterial stock cultures are stored as frozen suspensions at −70° C. N. gonorrhoeae cultures are suspended in inactivated Horse Serum (Colorado Serum Company, Denver, Colo.) containing 7.5% glucose prior to snap freezing in a dry ice/ethanol bath.
Frozen stock cultures were used as the initial source of organisms for performing microbroth dilution MIC testing. Stock cultures were passed on their respective growth medium at least one growth cycle (18-24 hours) prior to their use. Bacterial culture suspensions were prepared directly from Chocolate Agar II plates into 10 mL cation-adjusted Mueller-Hinton Broth (CAMHB, BBL, # BB215069). Before use, cultures were adjusted to an optical density value of […] on a Perkin-Elmer Lambda EZ150 Spectrophotometer (Wellesley, Mass.) set at a wavelength of 600 nm. Random cultures were plated for validation of actual colony counts. The adjusted cultures were diluted 400-fold (0.25 mL inoculum+100 mL GCB) into gonococcal broth producing a starting inoculum of approximately 5×10^5 cfu/mL. These cultures were inoculated into test plates (100 uL/well) using a Biomek® FX workstation (Beckman Coulter Inc., Fullerton, Calif.). The inoculated plates were placed in stacks of no more than 4 and covered with an empty plate. Plates were incubated for 20-24 hours at 35° C. in a humidified CO2 incubator.
Drug stock solutions (2 mg/mL in DMSO) were prepared on the day of testing. Drugs were weight corrected for assay content where necessary.
Microbroth dilution stock plates were prepared in two dilution series, 64-0.06 ug drug/mL and 1-0.001 ug drug/mL. For the high concentration series, 200 uL of stock solution (2 mg/mL) was added to duplicate rows of a 96-well plate. This was used as the first well in the dilution series. Serial two-fold decremental dilutions were made using a BioMek FX robot (Beckman Coulter Inc., Fullerton, Calif.) with 10 of the remaining 11 wells, each of which contained 100 uL of the appropriate solvent/diluent. Row 12 contained solvent/diluent only and served as the control. For tube one of the low concentration series, 200 uL of a 31.25 ug/mL stock was added to duplicate rows of a 96-well plate. Serial two-fold dilutions were made as described above.
Daughter plates were spotted (3.2 uL/well) from the stock plates listed above using the BioMek FX robot and were inoculated with organism (100 uL/well) as described previously.
After incubation, the degree of growth in each well was read visually with the aid of a Test Reading Mirror (Dynatech Lab 220-16, Dynex Technologies, Chantilly, Va.). 96-well test plates are read in a darkened room with a single light shining from above. The MIC is the lowest concentration of drug that prevents macroscopically visible growth under the conditions of the test. Each drug dilution series was tested in duplicate; identical results are not always obtained. If MIC values in duplicate tests differ by 1 well (two-fold), the […] value is reported. […]

In turn, `CCOC(=O)Nc1cn2ccc(-c3cccnc3)cc2n1` [Example 1A, (7-Pyridin-3-yl-imidazo[1,2-a]pyridin-2-yl)-carbamic Acid Ethyl Ester] came in with a minimal inhibitory concentration (MIC) above 64 µg/mL.

In turn, `CCNC(=O)Nc1cn2ccc(-c3cccnc3)cc2n1` [Example 1B, 1-Ethyl-3-(7-pyridin-3-yl-imidazo[1,2-a]pyridin-2-yl)-urea] gave an MIC of 16 µg/mL (≈ 56.9 µM).

`CCOC(=O)Nc1cn2cnc(-c3cccnc3)cc2n1` [Example 5, (7-Pyridin-3-yl-imidazo[1,2-c]pyrimidin-2-yl)-carbamic Acid Ethyl Ester] yielded an MIC above 64 µg/mL.

As to `CCNC(=O)Nc1cn2ccc(-c3ccc(OCCN4CCOCC4)nc3)cc2n1` [Example 6, 1-Ethyl-3-{7-[6-(2-morpholin-4-yl-ethoxy)-pyridin-3-yl]-imidazo[1,2-a]pyridin-2-yl}-urea], the lowest concentration to inhibit growth (MIC) was 45.3 µg/mL (≈ 110 µM).

In turn, `CCNC(=O)Nc1cn2c(CO)cc(-c3cccnc3)cc2n1` [Example 7A, 1-Ethyl-3-(5-hydroxymethyl-7-pyridin-3-yl-imidazo[1,2-a]pyridin-2-yl)-urea] had a minimum inhibitory concentration (MIC) of 5.66 µg/mL (≈ 18.2 µM).

Regarding `CCNC(=O)Nc1cn2c(C(=O)OC)cc(-c3cccnc3)cc2n1` [Example 7B, 2-(3-Ethyl-ureido)-7-pyridin-3-yl-imidazo[1,2-a]pyridine-5-carboxylic Acid Methyl Ester], it took 0.5 µg/mL (≈ 1.47 µM) to inhibit growth (MIC). This MIC lies about 11-fold lower than the previous one.

In turn, `CCNC(=O)Nc1cn2ccc(-c3cncnc3)cc2n1` [Example 8, 1-Ethyl-3-(7-pyrimidin-5-yl-imidazo[1,2-a]pyridin-2-yl)-urea] gave a minimal inhibitory concentration (MIC) of 5.66 µg/mL (≈ 20 µM).

`CCNC(=O)Nc1cn2ccc(-c3c(C)noc3C)cc2n1` [Example 9, 1-[7-(3,5-Dimethyl-isoxazol-4-yl)-imidazo[1,2-a]pyridin-2-yl]-3-ethyl-urea] yielded a minimum inhibitory concentration (MIC) above 64 µg/mL.

`CCNC(=O)Nc1cn2ccc(-c3cnn(Cc4ccccc4)c3)cc2n1` [Example 10, 1-[7-(1-Benzyl-1H-pyrazol-4-yl)-imidazo[1,2-a]pyridin-2-yl]-3-ethyl-urea] had a minimal inhibitory concentration (MIC) of 8 µg/mL (≈ 22.2 µM).

Turning to `CCNC(=O)Nc1cn2ccc(-c3ccc(N4CCN(C)CC4)nc3)cc2n1` [Example 11, 1-Ethyl-3-{7-[6-(4-methyl-piperazin-1-yl)-pyridin-3-yl]-imidazo[1,2-a]pyridin-2-yl}-urea], the MIC was 64 µg/mL (≈ 169 µM).

In the case of `CCNC(=O)Nc1cn2ccc(-c3cnn(C)c3)cc2n1` [Example 12, 1-Ethyl-3-[7-(1-methyl-1H-pyrazol-4-yl)-imidazo[1,2-a]pyridin-2-yl]-urea], inhibition of growth (MIC) required 64 µg/mL (≈ 225 µM).

For `CCNC(=O)Nc1cn2ccc(-c3cnc(OC)nc3OC)cc2n1` [Example 13, 1-[7-(2,4-Dimethoxy-pyrimidin-5-yl)-imidazo[1,2-a]pyridin-2-yl]-3-ethyl-urea], the MIC was above 64 µg/mL.

Turning to `CCNC(=O)Nc1cn2ccc(-c3c(C)nn(C(=O)OC(C)(C)C)c3C)cc2n1` [Example 14, 4-[2-(3-Ethyl-ureido)-imidazo[1,2-a]pyridin-7-yl]-3,5-dimethyl-pyrazole-1-carboxylic Acid Tert-Butyl Ester], the minimum inhibitory concentration (MIC) worked out at 64 µg/mL (≈ 161 µM).

`CCNC(=O)Nc1cn2ccc(-c3cn[nH]c3)cc2n1` [Example 15, 1-Ethyl-3-[7-(1H-pyrazol-4-yl)-imidazo[1,2-a]pyridin-2-yl]-urea] came in with a minimal inhibitory concentration (MIC) of 64 µg/mL (≈ 237 µM).

`CCNC(=O)Nc1nc2cc(-c3cccnc3)ccn2c1Cl` [Example 16, 1-(3-Chloro-7-pyridin-3-yl-imidazo[1,2-a]pyridin-2-yl)-3-ethyl-urea] gave an MIC of 64 µg/mL (≈ 203 µM).

With `CCNC(=O)Nc1nc2cc(-c3cnc(N(C)C)nc3)ccn2c1Cl` [Example 17, 1-[3-Chloro-7-(2-dimethylamino-pyrimidin-5-yl)-imidazo[1,2-a]pyridin-2-yl]-3-ethyl-urea], the MIC is above 32 µg/mL.

Consider `CCNC(=O)Nc1cn2ccc(C(=O)OC)cc2n1` [Example 18, 2-(3-Ethyl-ureido)-imidazo[1,2-a]pyridine-7-carboxylic Acid Methyl Ester], for which the minimal inhibitory concentration (MIC) is above 64 µg/mL.

With `CCNC(=O)Nc1cn2ccc(C(N)=O)cc2n1` [Example 19, 2-(3-Ethyl-ureido)-imidazo[1,2-a]pyridine-7-carboxylic Acid Amide], the MIC was above 64 µg/mL.

`CCNC(=O)Nc1cn2ccc(-c3nc(C)n[nH]3)cc2n1` [Example 20, 1-Ethyl-3-[7-(5-methyl-2H-[1,2,4]triazol-3-yl)-imidazo[1,2-a]pyridin-2-yl]-urea] had a minimal inhibitory concentration (MIC) above 64 µg/mL.

The compound `CCNC(=O)Nc1cn2ccc(-c3noc(C)n3)cc2n1` [Example 22, 1-Ethyl-3-[7-(5-methyl-[1,2,4]oxadiazol-3-yl)-imidazo[1,2-a]pyridin-2-yl]-urea] yielded a minimal inhibitory concentration (MIC) above 64 µg/mL.

In the case of `CCNC(=O)Nc1cn2c(-c3cnn(C)c3)cc(-c3cccnc3)cc2n1` [Example 23, 1-Ethyl-3-[5-(1-methyl-1H-pyrazol-4-yl)-7-pyridin-3-yl-imidazo[1,2-a]pyridin-2-yl]-urea], 0.13 µg/mL (≈ 0.36 µM) was the least that counted as inhibitory (MIC).

Compound `CCNC(=O)Nc1cn2ccc(C(=O)O)cc2n1` [Example 24, 2-(3-Ethyl-ureido)-imidazo[1,2-a]pyridine-7-carboxylic Acid] came in with an MIC above 64 µg/mL.

The compound `CCNC(=O)Nc1cn2ccc(-c3c(C)n[nH]c3C)cc2n1` [Example 25, 1-[7-(3,5-Dimethyl-1H-pyrazol-4-yl)-imidazo[1,2-a]pyridin-2-yl]-3-ethyl-urea] returned a minimal inhibitory concentration (MIC) of 64 µg/mL (≈ 215 µM).

With `O=C(Nc1cn2ccc(-c3cncnc3)cc2n1)NC1CC1` [Example 27, 1-Cyclopropyl-3-(7-pyrimidin-5-yl-imidazo[1,2-a]pyridin-2-yl)-urea], the MIC came to 64 µg/mL (≈ 217 µM).

Compound `O=C(NCC1CC1)Nc1cn2ccc(-c3cncnc3)cc2n1` [Example 28, 1-Cyclopropylmethyl-3-(7-pyrimidin-5-yl-imidazo[1,2-a]pyridin-2-yl)-urea] registered a minimum inhibitory concentration (MIC) of 32 µg/mL (≈ 104 µM).

On to `CCCNC(=O)Nc1cn2ccc(-c3cncnc3)cc2n1` [Example 29, 1-Propyl-3-(7-pyrimidin-5-yl-imidazo[1,2-a]pyridin-2-yl)-urea], for which the MIC turned out to be 16 µg/mL (≈ 54 µM).

In the case of `CC(C)NC(=O)Nc1cn2ccc(-c3cncnc3)cc2n1` [Example 30, 1-Isopropyl-3-(7-pyrimidin-5-yl-imidazo[1,2-a]pyridin-2-yl)-urea], it took 32 µg/mL (≈ 108 µM) to inhibit growth (MIC). Against the preceding compound, the MIC is about 2-fold higher.

Compound `O=C(NCC(F)(F)F)Nc1cn2ccc(-c3cncnc3)cc2n1` [Example 31, 1-(7-Pyrimidin-5-yl-imidazo[1,2-a]pyridin-2-yl)-3-(2,2,2-trifluoro-ethyl)-urea] gave an MIC of 64 µg/mL (≈ 190 µM).

Turning to `COCCNC(=O)Nc1cn2ccc(-c3cncnc3)cc2n1` [Example 32, 1-(2-Methoxy-ethyl)-3-(7-pyrimidin-5-yl-imidazo[1,2-a]pyridin-2-yl)-urea], the MIC is above 64 µg/mL.

Regarding `O=C(Nc1cn2ccc(-c3cncnc3)cc2n1)NC1CCC1` [Example 33, 1-Cyclobutyl-3-(7-pyrimidin-5-yl-imidazo[1,2-a]pyridin-2-yl)-urea], the MIC came out at 16 µg/mL (≈ 51.9 µM).

Compound `CCNC(=O)Nc1cn2ccc(-c3ccc(N)nc3)cc2n1` [Example 34, 1-[7-(6-Amino-pyridin-3-yl)-imidazo[1,2-a]pyridin-2-yl]-3-ethyl-urea] registered a minimum inhibitory concentration (MIC) of 16 µg/mL (≈ 54 µM).

Regarding `CCNC(=O)Nc1cn2ccc(C(C)=O)cc2n1` [Example 35, N-(7-acetylimidazo[1,2-a]pyridin-2-yl)-N′-ethylurea], the MIC came out at 64 µg/mL (≈ 260 µM). This MIC is about 4-fold higher than that of the compound before.

As for `CCNC(=O)Nc1cn2ccc(-c3nnc(C)o3)cc2n1` [Example 36, 1-Ethyl-3-[7-(5-methyl-[1,3,4]oxadiazol-2-yl)-imidazo[1,2-a]pyridin-2-yl]-urea], the minimal inhibitory concentration (MIC) was found to be 64 µg/mL (≈ 224 µM).

`CCNC(=O)Nc1cn2ccc(-c3ccnc(NC(=O)OC(C)(C)C)c3)cc2n1` [Example 37, {4-[2-(3-Ethyl-ureido)-imidazo[1,2-a]pyridin-7-yl]-pyridin-2-yl}-carbamic Acid Tert-Butyl Ester]: inhibition of growth (MIC) required 64 µg/mL (≈ 161 µM).
